Patent US10329295B2, “Pyrrolotriazine inhibitors of IRAK4 activity” (MERCK SHARP & DOHME CORP., priority 2015, dated 2019)
Structures can show the parent of a compound that is named as a salt.

Each compound was assayed against GST tagged IRAK4 (Homo sapiens (Human), UniProt Q9NWZ3) (assay: IRAK4 Kinase Assay (IMAP fluorescence polarization)). Settings: 0.5 nM GST tagged IRAK4, 100 μM ATP, 30 minutes at 25° C.
Type: biochemical
Protocol: The kinase activity of IRAK4 is determined by its ability to catalyze the phosphorylation of a fluorescent polypeptide substrate. The extent of phosphorylation is measured using the IMAP technology (Molecular Devices) where the phosphorylated fluorescent substrate binds to the large M(III)-based nanoparticles which reduces the rotational speed of the substrate and thus increases its fluorescent polarization (FP).
20 μL reaction mixture contains 10 mM TriHCl, pH 7.2, 0.5 nM GST tagged IRAK4 (SignalChem), 100 nM fluorescent peptide substrate (RP7030, Molecular Devices), 100 μM ATP, 1 mM DDT, 1 mM MgCl2, and 0.01% Tween 20. The reaction is initiated by the addition of ATP. After incubation for 30 minutes at 25° C., 60 μL of Progressive IMAP Reagent (Molecular Devices) is added to stop the reaction. Change in RP7030's FP is determined by a FP reader (Analyst HT, LJL BioSystems).

Sequence of GST tagged IRAK4 (Q9NWZ3 whole entry): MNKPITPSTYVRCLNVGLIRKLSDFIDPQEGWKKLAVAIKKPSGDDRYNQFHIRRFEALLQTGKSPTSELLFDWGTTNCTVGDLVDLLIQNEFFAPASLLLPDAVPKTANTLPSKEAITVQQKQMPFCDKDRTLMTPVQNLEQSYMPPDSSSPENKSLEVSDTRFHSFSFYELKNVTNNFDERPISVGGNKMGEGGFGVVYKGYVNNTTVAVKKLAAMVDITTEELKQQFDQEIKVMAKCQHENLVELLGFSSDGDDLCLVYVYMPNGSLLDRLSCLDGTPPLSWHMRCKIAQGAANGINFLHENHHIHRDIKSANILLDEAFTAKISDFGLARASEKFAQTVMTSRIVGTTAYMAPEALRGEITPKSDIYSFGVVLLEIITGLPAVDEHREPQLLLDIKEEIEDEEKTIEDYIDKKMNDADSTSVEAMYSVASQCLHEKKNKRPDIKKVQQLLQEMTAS

IC50 [nM] | Compound
10 | Cn1cc(NC(=O)c2ccc3cnc(N4C[C@@H]5CN[C@@H](C5)C4)nn23)c(C(F)F)n1 (single isomer, unassigned) [Example 103, 2-[(1S,5S)- or (1R,5R)-3,6-diazabicyclo[3.2.1]oct-3-yl]-N-[3-(difluoromethyl)-1-methyl-1H-pyrazol-4-yl]pyrrolo[2,1-f][1,2,4]triazine-7-carboxamide]
668 | Cn1cc(NC(=O)c2ccc3cnc(N[C@H]4CC(F)(F)CC[C@H]4N)nn23)c(C(F)F)n1 (single isomer, unassigned) [Example 130, 2-{[(1S,2R)- or (1R,2S)-2-amino-5,5-difluorocyclohexyl]amino}-N-[3-(difluoromethyl)-1-methyl-1H-pyrazol-4-yl]pyrrolo[2,1-f][1,2,4]triazine-7-carboxamide]
5 | Cn1cc(NC(=O)c2ccc3cnc(N[C@H]4CCCCNC4)nn23)c(C(F)(F)F)n1 (single isomer, unassigned) [Example 69, 2-[(3S)- or (3R)-azepan-3-ylamino]-N-[1-methyl-3-(trifluoromethyl)-1H-pyrazol-4-yl]pyrrolo[2,1-f][1,2,4]triazine-7-carboxamide trifluoroacetate]
8 | N#Cc1ccccc1NC(=O)c1ccc2cnc(N[C@H]3CCCCNC3)nn12 (single isomer, unassigned) [Example 60, 2-[(3S)- or (3R)-azepan-3-ylamino]-N-(2-cyanophenyl)pyrrolo[2,1-f][1,2,4]triazine-7-carboxamide trifluoroacetate]
5810 | N[C@@H]1[C@H](Nc2ncc3ccc(C(=O)Nc4ccccc4Br)n3n2)CCCC1(F)F [Example 106, 2-{[(1R,2R)-2-amino-3,3-difluorocyclohexyl]amino}-N-(2-bromophenyl)pyrrolo[2,1-f][1,2,4]triazine-7-carboxamide trifluoroacetate]
145 | Cn1cc(NC(=O)c2ccc3cnc(N4C[C@H]5CNC[C@@H]4C5)nn23)c(C(F)(F)F)n1 (single isomer, unassigned) [Example 117, 2-[(1S,5R)- or (1R,5S)-3,6-diazabicyclo[3.2.1]oct-6-yl]-N-[1-methyl-3-(trifluoromethyl)-1H-pyrazol-4-yl]pyrrolo[2,1-f][1,2,4]triazine-7-carboxamide]
2640 | O=C(Nc1ccsc1C(F)(F)F)c1ccc2cnc(N3CCCNCC3)nn12 [Example 85, 2-(1,4-diazepan-1-yl)-N-[2-(trifluoromethyl)thiophen-3-yl]pyrrolo[2,1-f][1,2,4]triazine-7-carboxamide trifluoroacetate]
4 | Cn1cc(NC(=O)c2ccc3cnc(N[C@@H]4CCCC[C@@H]4O)nn23)c(C(F)F)n1 [Example 17, N-[3-(difluoromethyl)-1-methyl-1H-pyrazol-4-yl]-2-{[(1R,2S)-2-hydroxycyclohexyl]amino}-pyrrolo[2,1-f][1,2,4]triazine-7-carboxamide trifluoroacetate]
265 | Cn1cc(NC(=O)c2ccc3cnc(N4C[C@H]5CC[C@@H]4CN5)nn23)c(C#N)n1 (single isomer, unassigned) [Example 47, N-(3-cyano-1-methyl-1H-pyrazol-4-yl)-2-[(1S,4S)- or (1R,4R)-2,5-diazabicyclo[2.2.2]oct-2-yl]pyrrolo[2,1-f][1,2,4]triazine-7-carboxamide trifluoroacetate]
322 | Cn1cc(NC(=O)c2ccc3cnc(N[C@@H]4CCCC[C@@H]4O)nn23)c(C(F)(F)F)n1 [Example 3, 2-{[(1R,2S)-2-hydroxycyclohexyl]amino}-N-[1-methyl-3-(trifluoromethyl)-1H-pyrazol-4-yl]pyrrolo[2,1-f][1,2,4]triazine-7-carboxamide trifluoroacetate]
2 | Cn1cc(NC(=O)c2ccc3cnc(N[C@@H]4CCCNC4)nn23)c(C(F)(F)F)n1 [Example 5, N-[1-methyl-3-(trifluoromethyl)-1H-pyrazol-4-yl]-2-[(3R)-piperidin-3-ylamino]pyrrolo[2,1-f][1,2,4]triazine-7-carboxamide trifluoroacetate]
4 | Cn1cc(NC(=O)c2ccc3cnc(N[C@@H]4CCCCNC4)nn23)c(C(F)(F)F)n1 (single isomer, unassigned) [Example 72, 2-[(3S)- or (3R)-azepan-3-ylamino]-N-[1-methyl-3-(trifluoromethyl)-1H-pyrazol-4-yl]pyrrolo[2,1-f][1,2,4]triazine-7-carboxamide trifluoroacetate]
1440 | O=C(Nc1ccsc1C(F)(F)F)c1ccc2cnc(N3C[C@H]4CC[C@@H]3CN4)nn12 (single isomer, unassigned) [Example 87, 2-[(1S,4S)- or (1R,4R)-2,5-diazabicyclo[2.2.2]oct-2-yl]-N-[2-(trifluoromethyl)thiophen-3-yl]pyrrolo[2,1-f][1,2,4]triazine-7-carboxamide trifluoroacetate]
174 | Cn1cc(NC(=O)c2ccc3cnc(N4C[C@H]5CNC[C@@H]4C5)nn23)c(C#N)n1 (single isomer, unassigned) [Example 134, N-(3-cyano-1-methyl-1H-pyrazol-4-yl)-2-[(1R,5S)- or (1S,5R)-3,6-diazabicyclo[3.2.1]oct-6-yl]pyrrolo[2,1-f][1,2,4]triazine-7-carboxamide]
0.5 | Cn1cc(NC(=O)c2ccc3cnc(N4C[C@H](N)C[C@@H](F)C4)nn23)c(C(F)F)n1 [Example 156, 2-[(3R,5R)-3-amino-5-fluoropiperidin-1-yl]-N-[3-(difluoromethyl)-1-methyl-1H-pyrazol-4-yl]pyrrolo[2,1-f][1,2,4]triazine-7-carboxamide trifluoroacetate]
73 | Cn1cc(NC(=O)c2ccc3cnc(N4CCNCC4)nn23)c(C(F)(F)F)n1 [Example 4, N-[1-methyl-3-(trifluoromethyl)-1H-pyrazol-4-yl]-2-piperazin-1-ylpyrrolo[2,1-f][1,2,4]triazine-7-carboxamide trifluoroacetate]
3 | Cn1cc(NC(=O)c2ccc3cnc(N[C@@H]4CCC(F)(F)C[C@@H]4N)nn23)c(C(F)F)n1 (single isomer, unassigned) [Example 139, 2-{[(1S,2R)- or (1R,2S)-2-amino-4,4-difluorocyclohexyl]amino}-N-[3-(difluoromethyl)-1-methyl-1H-pyrazol-4-yl]pyrrolo[2,1-f][1,2,4]triazine-7-carboxamide]
10 | Cn1cc(NC(=O)c2ccc3cnc(N4C[C@@H](N)C[C@H](F)C4)nn23)c(C(F)(F)F)n1 [Example 150, 2-[(3S,5S)-3-amino-5-fluoropiperidin-1-yl]-N-[1-methyl-3-(trifluoromethyl)-1H-pyrazol-4-yl]pyrrolo[2,1-f][1,2,4]triazine-7-carboxamide trifluoroacetate]
3 | N[C@H]1CCCC[C@H]1Nc1ncc2ccc(C(=O)Nc3ccccc3Cl)n2n1 [Example 40, 2-{[(1R,2S)-2-aminocyclohexyl]amino}-N-(2-chlorophenyl)pyrrolo[2,1-f][1,2,4]triazine-7-carboxamide trifluoroacetate]
18 | N#Cc1cscc1NC(=O)c1ccc2cnc(N3CCC[C@@H](N)C3)nn12 [Example 144, 2-[(3R)-3-aminopiperidin-1-yl]-N-(4-cyanothiophen-3-yl)pyrrolo[2,1-f][1,2,4]triazine-7-carboxamide trifluoroacetate]
1640 | N[C@@H]1[C@H](Nc2ncc3ccc(C(=O)Nc4ccccc4Cl)n3n2)CCCC1(F)F [Example 138, 2-{[(1R,2R)-2-amino-3,3-difluorocyclohexyl]amino}-N-(2-chlorophenyl)pyrrolo[2,1-f][1,2,4]triazine-7-carboxamide trifluoroacetate]
6 | Cn1cc(NC(=O)c2ccc3cnc(N4CCCNCC4)nn23)c(C(F)F)n1 [Example 15, 2-(1,4-diazepan-1-yl)-N-[3-(difluoromethyl)-1-methyl-1H-pyrazol-4-yl]pyrrolo[2,1-f][1,2,4]triazine-7-carboxamide trifluoroacetate]
46 | Cn1cc(NC(=O)c2ccc3cnc(N[C@@H]4CCCC(F)(F)[C@@H]4N)nn23)c(C(F)F)n1 [Example 92, 2-{[(1R,2R)-2-amino-3,3-difluorocyclohexyl]amino}-N-[3-(difluoromethyl)-1-methyl-1H-pyrazol-4-yl]pyrrolo[2,1-f][1,2,4]triazine-7-carboxamide trifluoroacetate]
4 | N[C@H]1CCCC[C@H]1Nc1ncc2ccc(C(=O)Nc3cscc3C(F)F)n2n1 [Example 42, 2-{[(1R,2S)-2-aminocyclohexyl]amino}-N-[4-(difluoromethyl)thiophen-3-yl]pyrrolo[2,1-f][1,2,4]triazine-7-carboxamide trifluoroacetate]
1 | N#Cc1sccc1NC(=O)c1ccc2cnc(N[C@@H]3CCCC[C@@H]3N)nn12 [Example 21, 2-{[(1R,2S)-2-aminocyclohexyl]amino}-N-(2-cyanothiophen-3-yl)pyrrolo[2,1-f][1,2,4]triazine-7-carboxamide trifluoroacetate]

Compound | IC50 [nM]
Cn1cc(NC(=O)c2ccc3cnc(N4C5CCC4CNC5)nn23)c(C#N)n1 [Example 111, N-(3-cyano-1-methyl-1H-pyrazol-4-yl)-2-(3,8-diazabicyclo[3.2.1]oct-8-yl)pyrrolo[2,1-f][1,2,4]triazine-7-carboxamide trifluoroacetate] | 12
Cn1cc(NC(=O)c2ccc3cnc(N4CC5CCC(C4)N5)nn23)c(C(F)F)n1 [Example 83, 2-(3,8-diazabicyclo[3.2.1]oct-3-yl)-N-[3-[difluoromethyl)-1-methyl-1H-pyrazol-4-yl]pyrrolo[2,1-f][1,2,4]triazine-7-carboxamide trifluoroacetate] | 2
